Structures can show the parent of a compound that is named as a salt.
In the case of `Nc1cccc(Cl)c1C(=O)NCC12CC3CC(CC(C3)C1)C2` [Example 14, 2-Amino-6-chloro-N-(tricyclo[3.3.1.1^3,7]dec-1-methyl)-benzamide], the melting point is reported as 182 to 183 °C. With `Cc1ccc(Sc2ncccc2C(=O)NCC23CC4CC(CC(C4)C2)C3)cc1` [Example 17, 2-(4-Methylphenylthio)-N-(tricyclo[3.3.1.1^3,7]dec-1-methyl)-3-pyridine carboxamide] the melting point was 166 to 169 °C. `O=C(NCC12CC3CC(CC(C3)C1)C2)c1ccccc1[N+](=O)[O-]` [Example 9, 2-Nitro-N-(tricyclo[3.3.1.1^3,7]dec-1-methyl)-benzamide] showed a melting point of over 250 °C. `CSc1nc(C)ccc1C(=O)NCC12CC3CC(CC(C3)C1)C2` [Example 49, (2-Methylthio-6-methyl)-N-(tricyclo[3.3.1.1^3,7]dec-1-ylmethyl)-3-pyridine carboxamide] gave a melting point of 160 to 161 °C. `O=C(NCC12CC3CC(CC(C3)C1)C2)c1c(F)cccc1C(F)(F)F` [Example 13, 2-(Trifluoromethyl)-6-flouro-N-(tricyclo(3.3.1.1^3,7]dec-1-methyl)-benzamide] gave a melting point of 151 to 153 °C. Compound `O=C(NCC12CC3CC(CC(C3)C1)C2)c1cc(O)ccc1Cl` [Example 51, 2-Chloro-5-hydroxy-N-(tricyclo[3.3.1.1^3,7]dec-1-ylmethyl)-benzamide] has a melting point of 263 to 264 °C. Work on `COc1cc(OC)cc(C(=O)NCC23CC4CC(CC(C4)C2)C3)c1` [Example 68] yielded a melting point of 130 to 133 °C. In the case of `COc1cc(OC)c(C)c(C(=O)NCC23CC4CC(CC(C4)C2)C3)c1` [Example 67, 3,5-Dimethoxy-2-methyl-N-(tricyclo[3.3.1.1^3,7]dec-1-ylmethyl)-benzamide], the melting point is reported as 173 to 175 °C. `NCCSc1ncccc1C(=O)NCC12CC3CC(CC(C3)C1)C2` (as salt: trifluoroacetate) [Example 31, 2-(2-Aminoethylthio)-N-(tricyclo[3.3.1.1^3,7]dec-1-ylmethyl)-3-pyridine carboxamide, trifluoroacetate] gave a melting point of 184 °C. Compound `O=C(NCC12CC3CC(CC(C3)C1)C2)c1ccccc1C(F)(F)F` [Example 11, 2-(Trifluoromethyl)-N-(tricyclo[3.3.1.1^3,7]dec-1-methyl)-benzamide] has a melting point of 165 to 167 °C. `O=C(NCC12CC3CC(CC(C3)C1)C2)c1cccc(NCCNCCc2c[nH]cn2)c1Cl` [Example 77, 2-Chloro-3-(N-(2-[imidazoyl-4-yl]ethyl)-2-aminoethyl)amino-N-(tricyclo[3.3.1.1^3,7]dec-1-ylmethyl)-benzamide] gave a melting point of 86 to 87 °C. With `O=C(NCC12CC3CC(CC(C3)C1)C2)c1cccnc1N1CCCC1` (as salt: hydrochloride) [Example 36, 2-(Pyrrolidin-1-yl) N-(tricyclo[3.3.1.1^3,7]dec-1-ylmethyl)-3-pyridine carboxamide, dihydrochloride] the melting point was 157 to 158 °C. `CN(C)CCNc1cccc(C(=O)NCC23CC4CC(CC(C4)C2)C3)c1Cl` [Example 56, 2-Chloro-3-(N,N-dimethylamino)ethylamino-N-(tricyclo[3.3.1.1^3,7]dec-1-ylmethyl)-benzamide] showed a melting point of 221 °C. `O=C(NCC12CC3CC(CC(C3)C1)C2)c1cccnc1NCCN1CCCC1` (as salt: hydrochloride) [Example 33, 2-(2-(Pyrrolidin-1-yl)ethylamino)-N-(tricyclo[3.3.1.1^3,7]dec-1-ylmethyl)-3-pyridine carboxamide, dihydrochloride] gave a melting point of 266 to 268 °C. Compound `O=C(NCC12CC3CC(CC(C3)C1)C2)c1ccccc1I` [Example 8, 2-Iodo-N-(tricyclo[3.3.1.1^3,7]dec-1-methyl)-benzamide] has a melting point of 194 to 195 °C. `O=C(NCC12CC3CC(CC(C3)C1)C2)c1cccc(Cl)c1` [Example 20, 3-Chloro-N-(tricyclo[3.3.1.1^3,7]dec-1-methyl)-benzamide] showed a melting point of 125 to 126 °C. `O=C(O)CCCOc1ccccc1C(=O)NCC12CC3CC(CC(C3)C1)C2` [Example 50, 2-[[(Tricyclo[3.3.1.1^3,7]dec-1-ylmethyl)amino]carbonyl]phenyl-1-oxybutyric acid] showed a melting point of 109 to 113 °C. For `CSc1ccccc1C(=O)NCC12CC3CC(CC(C3)C1)C2` [Example 18, 2-(Methylthio)-N-(tricyclo[3.3.1.1^3,7]dec-1-methyl)-benzamide], the melting point was 171 to 172 °C. In the case of `O=C(NCC12CC3CC(CC(C3)C1)C2)c1cc(F)ccc1Cl` [Example 43, 2-Chloro-5-fluoro-N-(tricyclo[3.3.1.1^3,7]dec-1-ylmethyl)-benzamide], the melting point is reported as 176 to 177 °C. With `COc1cccc(OC)c1C(=O)NCC12CC3CC(CC(C3)C1)C2` the melting point was 185 to 186 °C. With `O=C(NCC12CC3CC(CC(C3)C1)C2)c1ccccc1Cc1ccccc1` [Example 23, 2-(Phenylmethyl) -N-(tricyclo[3.3.1.1^3,7]dec-1-methyl)-benzamide] the melting point was 156 to 157 °C. `N#Cc1ccccc1Sc1ccccc1C(=O)NCC12CC3CC(CC(C3)C1)C2` [Example 16, 2-(2-Cyanophenylthio)-N-(tricyclo[3.3.1.1^3,7]dec-1-methyl)-benzamide] showed a melting point of 62 to 65 °C. For `O=C(NCC12CC3CC(CC(C3)C1)C2)c1ccc(Cl)cc1Cl`, the melting point was 180 to 182 °C. For `C[S+]([O-])c1ncccc1C(=O)NCC12CC3CC(CC(C3)C1)C2` (centres unmarked) [Example 27, 2-(Methylsulphoxide)-N-(tricyclo[3.3.1.1^3,7]dec-1-methyl)-3-pyridine carboxamide], the melting point was 214 °C. With `O=C(NCC12CC3CC(CC(C3)C1)C2)c1c(F)cccc1F` [Example 12, 2,6-Difluoro-N-(tricyclo[3.3.1.1^3,7]dec-1-methyl)-benzamide] the melting point was 162 to 163 °C. Work on `Cc1ccc(C)c(C(=O)NCCC23CC4CC(CC(C4)C2)C3)c1` [Example 75, 2,5-Dimethyl-N-(2-[tricyclo[3.3.1.1^3,7]dec-1-yl]ethyl)-benzamide] yielded a melting point of 153 °C. Work on `COc1ccc(Sc2ncccc2C(=O)NCC23CC4CC(CC(C4)C2)C3)cc1` [Example 40, 2-(4-Methoxyphenylthio)-N-(tricyclo[3.3.1.1^3,7]dec-1-ylmethyl)-3-pyridine carboxamide] yielded a melting point of 130 to 131 °C. In the case of `CNc1ncccc1C(=O)NCC12CC3CC(CC(C3)C1)C2` (as salt: hydrochloride) [Example 34, 2-(Methylamino)-N-(tricyclo[3.3.1.1^3,7]dec-1-ylmethyl)-3-pyridine carboxamide, dihydrochloride], the melting point is reported as 160 to 162 °C. In the case of `O=C(NCC12CC3CC(CC(C3)C1)C2)c1cccc(O)c1Cl` [Example 59], the melting point is reported as 234 to 235 °C. With `CSc1ccc(Cl)c(C(=O)NCC23CC4CC(CC(C4)C2)C3)c1` [Example 38, 2-Chloro-5-methylthio-N-(tricyclo[3.3.1.1^3,7]dec-1-ylmethyl)-benzamide] the melting point was 126 to 127 °C. For `O=C(NCC12CC3CC(CC(C3)C1)C2)c1cccc(F)c1Cl` [Example 41, 2-Chloro-3-fluoro-N-(tricyclo[3.3.1.1^3,7]dec-1-ylmethyl)-benzamide], the melting point was 149 to 151 °C. With `O=C(NCC12CC3CC(CC(C3)C1)C2)c1cc(Cl)ccc1Cl` [Example 61, 2,5-Dichloro-N-(tricyclo[3.3.1.1^3,7]dec-1-ylmethyl)-benzamide] the melting point was 161 to 162 °C. Work on `O=C(NCC12CC3CC(CC(C3)C1)C2)c1cc(N2CC2)ccc1Cl` yielded a melting point of 154 to 155 °C. `COc1cc(OC)c(C)c(C(=O)NCC23CC4CC(CC(Cl)(C4)C2)C3)c1` [Example 79, 3,5-Dimethoxy-2-methyl-N-(3-chloro-tricyclo[3.3.1.1^3,7]dec-1ylmethyl)-benzamide] showed a melting point of 173 to 175 °C. `COc1ccc(OC)c(Sc2ncccc2C(=O)NCC23CC4CC(CC(C4)C2)C3)c1` [Example 37, 2-(2,5-Dimethoxyphenylthio)-N-(tricyclo[3.3.1.1^3,7]dec-1-ylmethyl)-3-pyridine carboxamide] showed a melting point of 135 to 136 °C. `O=C(NCC12CC3CC(CC(C3)C1)C2)c1cc(Cl)cc(Cl)c1` [Example 2, 3,5-Dichloro-N-(tricyclo[3.3.1.1^3,7]dec-1-methyl)-benzamide] gave a melting point of 197 to 198 °C. Work on `CN(C)CCOc1ccccc1C(=O)NCC12CC3CC(CC(C3)C1)C2.Cl` yielded a melting point of 181 to 183 °C. With `O=C(NCC12CC3CC(CC(C3)C1)C2)c1cc(NCCN2CCCCC2)ccc1Cl` (as salt: hydrochloride) [Example 70, 2-Chloro-5-(2-(piperidin-1-yl)ethylamino)-N-(tricvclo(3.3.1.1^3,7]dec-1-ylmethyl)-benzamide, hydrochloride] the melting point was 142 to 143 °C (dec.). With `CN(C)CCNc1ncccc1C(=O)NCC12CC3CC(CC(C3)C1)C2` (as salt: hydrochloride) [Example 32, 2-(2-(N,N-Dimethylamino)ethylamino)-N-(tricyclo[3.3.1.1^3,7]dec-1-ylmethyl)-3-pyridine carboxamide, dihydrochloride] the melting point was 258 to 260 °C. Compound `O=C(NCC12CC3CC(CC(C3)C1)C2)c1cc(NCCNCC(O)c2ccccc2)ccc1Cl` (centres unmarked) [Example 69, 5-(N-(2-Hydroxy-2-phenylethyl)-2-aminoethyl)amino-2-chloro-N-(tricyclo[3.3.1.1^3,7]dec-1-ylmethyl)-benzamide] has a melting point of 63 to 64 °C. `O=C(NCC12CC3CC(CC(C3)C1)C2)c1cc(I)ccc1Cl` [Example 80, 2-Chloro-5-iodo-N-(tricyclo[3.3.1.1^3,7]dec-1-ylmethyl)-benzamide] gave a melting point of 161.4 to 161.5 °C. Compound `CN(C)CCSc1ccccc1C(=O)NCC12CC3CC(CC(C3)C1)C2` [Example 39, 2-(2-(N,N-Dimethylamino)ethylthio)-N-(tricyclo[3.3.1.1^3,7]dec-1-ylmethyl)-benzamide] has a melting point of 193 to 195 °C. `CN(C)CCOc1ccc(Cl)c(C(=O)NCC23CC4CC(CC(C4)C2)C3)c1` [Example 60, 2-Chloro-5-(N,N-dimethylamino)ethyloxy-N-(tricyclo[3.3.1.1^3,7]dec-1-ylmethyl)-benzamide] showed a melting point of 144 to 147 °C. With `O=C(NCCC12CC3CC(CC(C3)C1)C2)c1ccccc1Cl` [Example 72, 2-Chloro-N-(2-[tricyclo[3.3.1.1^3,7]dec-1-yl]ethyl)-benzamide] the melting point was 125 to 127 °C.
